Measurements reported in patent US12012467B2, “Small molecule DCN1 inhibitors and therapeutic methods using the same” (THE REGENTS OF THE UNIVERSITY OF MICHIGAN, priority 2017, dated 2024).
Like-named read-outs stand apart in the source and are kept apart here. Square brackets hold non-standard residues; d marks the D form. Peptide text beside a SMILES is read from it. * marks the point of attachment. Ala(6-iPr-benzothiazol-2-yl) = CC(C)c1ccc2nc(C[C@H](N)C(=O)O)sc2c1; 2Nal = N[C@@H](Cc1ccc2ccccc2c1)C(=O)O; Isobutyryl = CC(C)C(=O)*; Propionyl = CCC(=O)*; NHPh = c1ccc(N*)cc1

Molecular target: DCN1 (Homo sapiens (Human), UniProt Q96GG9)
Sequence (Q96GG9 58-259): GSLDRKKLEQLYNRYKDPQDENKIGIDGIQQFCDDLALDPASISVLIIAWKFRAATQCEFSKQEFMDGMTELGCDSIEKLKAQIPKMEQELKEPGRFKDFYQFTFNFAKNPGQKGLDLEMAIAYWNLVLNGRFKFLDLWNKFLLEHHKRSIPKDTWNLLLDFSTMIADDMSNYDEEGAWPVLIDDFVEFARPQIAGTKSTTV
Experiment: Competitive FP binding assay
Procedure, shortened: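 FP competition with DCN1 in 100 mM phosphate pH 6.5, 0.02% Tween-20, 2% DMSO, probe 5 nM final. Equilibrated 30 min at room temperature with shaking. DCN1 was His6-tagged (uncleaved), expressed in E. coli Rosetta2 and purified by Ni-NTA and gel filtration.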

[1] = read-out: Binding affinity to DCN1 (IC50 (nM))
[2] = bounds given in μM, read-out: Binding affinity to DCN1 (IC50)

IC50 [1] [nM] | IC50 [2] [nM] | SMILES
171 |  | CCC(=O)N[C@@H](Cc1nc2ccc(CC)cc2s1)C(=O)N[C@H](C(=O)N[C@@H](CC1CCN(C)CC1)C(=O)N[C@@H]1CCOc2ccccc21)C1CCOCC1 [Example 193]
2000 |  | CCC(=O)N[C@@H](Cc1ccc2ccccc2c1)C(=O)N[C@H](C(=O)N[C@@H](CCCCN)C(=O)N[C@H](CN)c1ccccc1)C1CCCC1 [Example 150]
 | > 10000 | CC[C@H](C)[C@H](NC(=O)[C@@H](N)Cc1nc2ccc(C(C)C)cc2s1)C(=O)N[C@@H](CCCCN)C(=O)N[C@@H](CC(C)C)C(N)=O [Example 272] (H-[Ala(6-iPr-benzothiazol-2-yl)]IKL-NH2)
1200 |  | CCC(=O)N[C@@H](Cc1nc2cc(F)ccc2s1)C(=O)N[C@H](C(=O)N[C@@H](CCCCN)C(=O)NC(c1ccccc1)c1ccccc1)C1CCCC1 [Example 27]
1560 |  | CCC(=O)N[C@H](CNC(=O)C1(N)CCCC1)Cc1nc2ccc(C(C)C)cc2s1 [Example 114]
63.1 |  | CCC(=O)N[C@@H](Cc1nc2ccc(C(C)C)cc2s1)C(=O)N[C@H](CNC(=O)CCCN1CCOCC1)C1CCCCC1 [Example 59, N—((S)-2-cyclohexyl-2-((S)-3-(6-isopropylbenzo[d]thiazol-2-yl)-2-propionamidopropanamido)ethyl)-4-morpholinobutanamide]
189 |  | CCC(=O)N[C@@H](Cc1nc2ccc(C(C)C)cc2s1)C(=O)N[C@H](CNc1ccncn1)C1CCCCC1 [Example 78]
127 |  | CCC(=O)N[C@@H](Cc1nc2ccc(C(C)C)cc2s1)C(=O)N[C@H](CO)C1CCCCC1 [Example 81, (S)—N—((S)-1-cyclohexyl-2-hydroxyethyl)-3-(6-isopropylbenzo[d]thiazol-2-yl)-2-propionamidopropanamide]
90.6 |  | CCC(=O)N[C@@H](Cc1nc2ccc(C)cc2s1)C(=O)N[C@H](C(=O)N[C@@H](CCCCN)C(=O)N[C@@H]1CCOc2ccccc21)C1CCCC1 [Example 175]
2390 |  | CCC(=O)N[C@H](CNC(=O)C1(N)CCCCCC1)Cc1nc2ccc(C(C)C)cc2s1 [Example 115]
116 |  | CCC(=O)N[C@@H](Cc1nc2ccc(C(C)C)cc2s1)C(=O)N[C@H](C(=O)N[C@@H](CCCCN)C(N)=O)C1CCCCC1 [Example 291]
79 |  | CCC(=O)N[C@@H](Cc1nc2ccc(CC)cc2s1)C(=O)N[C@H](C(=O)N[C@@H](CCCCN)C(=O)N[C@@H]1CNCc2ccccc21)C1CCCC1 [Example 177]
77.8 |  | CC[C@H](C)[C@H](NC(=O)[C@H](Cc1nc2ccc(C(C)C)cc2s1)NC(=O)C(C)C)C(=O)N[C@@H](CCCCN)C(=O)N[C@@H](CC(C)C)C(N)=O [Example 275] (Isobutyryl-[Ala(6-iPr-benzothiazol-2-yl)]IKL-NH2)
70.4 |  | CCC(=O)N[C@@H](Cc1nc2ccc(C(C)C)cc2s1)C(=O)N[C@H](CNC(=O)CN1CCOCC1)C1CCCCC1 [Example 57, (S)—N—((S)-1-cyclohexyl-2-(2-morpholinoacetamido)ethyl)-3-(6-isopropylbenzo[d]thiazol-2-yl)-2-propionamidopropanamide]
71.6 |  | CCC(=O)N[C@@H](Cc1nc2ccc(C(C)C)cc2s1)C(=O)N[C@H](CNC(=O)C1CN(C)C1)C1CCCCC1 [Example 69]
 | > 10000 | CCC(=O)N[C@@H](Cc1nc2ccc(C(C)C)cc2s1)C(=O)NCCN [Example 53, (S)—N-(2-aminoethyl)-3-(6-isopropylbenzo[d]thiazol-2-yl)-2-propionamidopropanamide]
 | > 10000 | CCC(=O)N[C@@H](Cc1nc2ccc(Cl)cc2s1)C(=O)N[C@@H](C)CN [Example 220]
89.9 |  | CCC(=O)N[C@@H](Cc1nc2ccc(C(C)C)cc2s1)C(=O)N[C@H](CNC(=O)CCN1CCOCC1)Cc1ccccc1 [Example 93]
611 |  | CCC(=O)N[C@@H](Cc1nc2ccc(Cl)cc2s1)C(=O)N[C@H](CNC(=O)[C@H](C)CN1CCOCC1)Cc1ccccc1 [Example 226]
949 |  | CCC(=O)N[C@@H](Cc1nc2ccc(C(C)(C)C)cc2s1)C(=O)N[C@H](CN)Cc1ccccc1 [Example 223]
257 |  | CCC(=O)N[C@@H](Cc1nc2ccc(C(C)C)cc2s1)C(=O)N[C@H](CNC(=O)c1c[nH]cn1)C1CCCCC1 [Example 67]
123 |  | CCC(=O)N[C@@H](Cc1nc2ccc(Cl)cc2s1)C(=O)N[C@H](C(=O)N[C@@H](CCCCN(C)C)C(=O)N[C@@H]1CCOc2ccccc21)C1CCOCC1 [Example 38]
 | > 10000 | CCC(=O)N[C@@H](Cc1nc2ccc(C(C)C)cc2s1)C(=O)N[C@@H](C)CN [Example 54, (S)—N—((S)-1-aminopropan-2-yl)-3-(6-isopropylbenzo[d]thiazol-2-yl)-2-propionamidopropanamide]
84.3 |  | CCC(=O)N[C@@H](Cc1nc2ccc(Cl)cc2s1)C(=O)N[C@H](C(=O)N[C@@H](CCCCN)C(=O)N[C@@H]1CNCc2ccccc21)C1CCOCC1 [Example 43]
1560 |  | CCC(=O)N[C@@H](Cc1nc2ccc(Cl)cc2s1)C(=O)N[C@H](CN)C1CCOCC1 [Example 219]
 | > 10000 | CCC(=O)N[C@H](Cc1nc2ccc(C(C)C)cc2s1)C(=O)N[C@@H](CN)C1CCCCC1 [Example 122, (R)—N—((R)-2-amino-1-cyclohexylethyl)-3-(6-isopropylbenzo[d]thiazol-2-yl)-2-propionamidopropanamide]
163 |  | CCC(=O)N[C@@H](Cc1nc2ccc(Cl)cc2s1)C(=O)N[C@H](C(=O)N[C@@H](CCCCN(C)C)C(=O)N[C@@H]1CN(C)Cc2ccccc21)C1CCCC1 [Example 40]
67.3 |  | CCC(=O)N[C@@H](Cc1nc2ccc(C(C)C)cc2s1)C(=O)N[C@H](CNC(=O)C1CCN(C2COC2)CC1)C1CCCCC1 [Example 63]
103 |  | CCC(=O)N[C@@H](Cc1ccc2ccccc2c1)C(=O)N[C@H](C(=O)N[C@@H](CCCCN)C(=O)N[C@@H]1CCOc2cccc(Cl)c21)C1CCCC1 [Example 163]

The next lines start with the compound.

SMILES | IC50 [1] [nM] | IC50 [2] [nM]
CCC(=O)N[C@@H](Cc1ccc2ccccc2c1)C(=O)N[C@H](C(=O)N[C@@H](CCCCN)C(=O)N[C@@H]1CNCc2ccccc21)C1CCCC1 [Example 160] | 457 | 
CCC(=O)N[C@@H](Cc1ccc2ccccc2c1)C(=O)N[C@H](C(=O)N[C@@H](CCCCN)C(=O)N[C@@H]1CCc2ccccc21)[C@@H](C)CC [Example 13] | 913 | 
CCC(=O)N[C@@H](Cc1ccc2ccccc2c1)C(=O)N[C@H](C(=O)N[C@@H](CCCCN)C(=O)Nc1ccccc1)[C@@H](C)CC [Example 9] (Propionyl-[2Nal]-Ile-Lys-NHPh) |  | > 10000
CCC(=O)N[C@@H](Cc1nc2cc(Cl)ccc2o1)C(=O)N[C@H](C(=O)N[C@@H](CCCCN)C(=O)NC(c1ccccc1)c1ccccc1)[C@@H](C)CC [Example 155] | 1200 | 
CCC(=O)N[C@@H](Cc1nc(C)n(C(C)C)n1)C(=O)N[C@H](CN)Cc1ccccc1 [DI-533] |  | > 10000
CCC(=O)N[C@@H](Cc1nc(C)c(-c2ccc([N+](=O)[O-])cc2)s1)C(=O)N[C@H](CN)Cc1ccccc1 [Example 106] |  | > 10000
CCC(=O)N[C@@H](Cc1cccnc1)C(=O)N[C@H](C(=O)N[C@@H](CCCCN)C(=O)NC(c1ccccc1)c1ccccc1)[C@@H](C)CC [Example 133] |  | > 10000
CCC(=O)N[C@@H](Cc1nc(C)c(-c2ccccc2Cl)s1)C(=O)N[C@H](CN)Cc1ccccc1 [Example 104] |  | > 10000
CCC(=O)N[C@@H](Cc1nc(C)c(-c2cccc(C(F)(F)F)c2)s1)C(=O)N[C@H](CN)Cc1ccccc1 [Example 233] |  | > 10000
CCC(=O)N[C@@H](Cc1nc2ccc(C(F)(F)F)cc2o1)C(=O)N[C@H](C(=O)N[C@@H](CCCCN)C(=O)N[C@@H]1CCOc2ccccc21)C1CCOCC1 [Example 197] | 102 | 
CCC(=O)N[C@@H](Cc1ccc2ccccc2c1)C(=O)N[C@H](C(=O)N[C@@H](CCCCN)C(=O)N[C@@H]1CCOc2cc(Cl)ccc21)C1CCCC1 [Example 165] | 122 | 
CCC(=O)N[C@@H](Cc1nc(C)c(-c2ccccc2)s1)C(=O)N[C@H](CN)Cc1ccccc1 [Example 101] | 1740 | 
CCC(=O)N[C@@H](Cc1nc2ccc(C)cc2s1)C(=O)N[C@@H](Cc1cccnc1)C(=O)N[C@@H](CCCCN)C(=O)N[C@@H]1CCOc2ccccc21 [Example 183] | 165 | 
CCC(=O)N[C@@H](Cc1ccc2ccccc2c1)C(=O)N[C@H](C(=O)N[C@@H](CCCCN(C)C)C(=O)NC(c1ccccc1)c1ccccc1)C1CCCC1 [Example 146] | 464 | 
CCC(=O)N[C@@H](Cc1ccccn1)C(=O)N[C@H](C(=O)N[C@@H](CCCCN)C(=O)NC(c1ccccc1)c1ccccc1)[C@@H](C)CC [Example 132] |  | > 10000
CCC(=O)N[C@@H](Cc1nc2ccc(C)cc2s1)C(=O)N[C@@H](Cc1ccccn1)C(=O)N[C@@H](CCCCN)C(=O)N[C@@H]1CCOc2ccccc21 [Example 179] | 133 | 
CCC(=O)N[C@@H](Cc1nc(C)c(-c2ccc(Cl)cc2)s1)C(=O)N[C@H](CN)Cc1ccccc1 [Example 102] | 1280 | 
CCC(=O)N[C@@H](Cc1nc2ccc(CC)cc2o1)C(=O)N[C@H](C(=O)N[C@@H](CCCCN)C(=O)N[C@@H]1CCOc2ccccc21)C1CCOCC1 [Example 196] | 71.1 | 
CCC(=O)N[C@@H](Cc1ccc2ccccc2c1)C(=O)N[C@H](C(=O)N[C@@H](CCCCN)C(=O)N[C@@H]1CCCc2ccccc21)[C@@H](C)CC [Example 15] | 461 | 
CCC(=O)N[C@@H](Cc1nc2ccc(Cl)c(Cl)c2s1)C(=O)N[C@H](CN)Cc1ccccc1 [Example 221] | 294 | 
CCC(=O)N[C@@H](Cc1nc(CC)c(-c2ccccc2)s1)C(=O)N[C@H](CN)Cc1ccccc1 [Example 225] |  | > 3000
CCC(=O)N[C@H](CNC(=O)Cc1ccccc1)Cc1nc2ccc(Cl)cc2s1 [Example 253] | 1200 | 
NCCNC(=O)[C@H](Cc1nc2ccc(Cl)cc2s1)NC(=O)CCOc1ccccc1 [Example 237] |  | > 10000
CCC(=O)N[C@@H](Cc1ccc2ccccc2c1)C(=O)N[C@@H](CC(F)(F)F)C(=O)N[C@@H](CCCCN)C(=O)NC(c1ccccc1)c1ccccc1 [Example 23] |  | > 1000
